Broadly, the Kd is the constant that tells how readily two partners part at equilibrium.

Experiment in all cases: kinase binding constant, 11-point dose response (T7 phage, qPCR)
What all share (settings): >30 = no inhibition at highest concentration tested
(Real-time PCR tracks product formation cycle by cycle.)

In assay [1] the target is CAMK2G (Homo sapiens, UniProt Q13555). The procedure:
(§1) Kinase inhibition studies were performed by methods well known in the prior art (Fabian, M. A. et al. Nat. Biotechnol. 2005, 23, 329). Briefly, kinase-tagged T7 phage strains were prepared in an E. coli host derived from the BL21 strain. E. coli were grown to log-phase and infected with T7 phage and incubated with shaking at 32° C. until lysis. The lysates were centrifuged and filtered to remove cell debris. […] The liganded beads were blocked with excess biotin and washed with blocking buffer (SeaBlock (Pierce); 1% BSA, 0.05% Tween 20, 1 mM DTT) to remove unbound ligand and to reduce non-specific binding. […] All reactions were performed in polystyrene 96-well plates in a final volume of 0.135 ml. […] The kinase concentration in the eluates was measured by qPCR.
(§2) An 11-point 3-fold serial dilution of each test compound (from 30 μM to 0.5 nM) was prepared in 100% DMSO at 100× final test concentration and subsequently diluted to 1× in the assay (final DMSO concentration=1%). Binding constants (KDS) were calculated with a standard dose-response curve using a 5-point sigmoidal (Hill) equation.

In assay [2] the target is T1, ULK1 (Homo sapiens, UniProt O75385).
T1 sequence (O75385 1-1050): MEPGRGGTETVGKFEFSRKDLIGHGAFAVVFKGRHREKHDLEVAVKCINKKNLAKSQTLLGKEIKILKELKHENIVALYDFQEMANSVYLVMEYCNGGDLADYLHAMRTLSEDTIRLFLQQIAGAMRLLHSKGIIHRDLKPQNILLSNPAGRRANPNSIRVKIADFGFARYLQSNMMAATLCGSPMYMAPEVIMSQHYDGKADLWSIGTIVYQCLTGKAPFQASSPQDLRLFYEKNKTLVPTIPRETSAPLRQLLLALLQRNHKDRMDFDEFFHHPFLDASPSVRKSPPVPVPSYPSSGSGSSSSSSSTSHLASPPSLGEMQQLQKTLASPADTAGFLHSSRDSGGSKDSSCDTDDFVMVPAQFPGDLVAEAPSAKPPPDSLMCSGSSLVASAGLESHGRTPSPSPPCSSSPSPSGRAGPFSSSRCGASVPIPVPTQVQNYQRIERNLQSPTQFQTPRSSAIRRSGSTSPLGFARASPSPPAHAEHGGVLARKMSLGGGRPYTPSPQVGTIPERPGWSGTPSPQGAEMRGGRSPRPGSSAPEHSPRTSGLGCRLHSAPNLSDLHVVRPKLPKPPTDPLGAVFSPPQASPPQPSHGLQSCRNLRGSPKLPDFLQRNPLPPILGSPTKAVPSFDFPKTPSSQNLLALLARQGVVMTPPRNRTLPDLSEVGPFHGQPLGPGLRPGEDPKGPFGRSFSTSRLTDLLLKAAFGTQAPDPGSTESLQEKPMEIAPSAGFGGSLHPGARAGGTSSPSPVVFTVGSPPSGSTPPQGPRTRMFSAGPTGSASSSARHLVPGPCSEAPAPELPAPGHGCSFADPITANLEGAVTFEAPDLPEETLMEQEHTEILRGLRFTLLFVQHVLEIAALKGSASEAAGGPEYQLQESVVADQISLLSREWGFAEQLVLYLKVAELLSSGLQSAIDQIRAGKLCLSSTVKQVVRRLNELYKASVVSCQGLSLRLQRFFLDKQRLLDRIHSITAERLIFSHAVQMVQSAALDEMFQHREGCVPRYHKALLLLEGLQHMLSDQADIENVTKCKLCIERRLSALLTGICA
How it is done: as §1, §2

For assay [3], the target named is AAK1 (Homo sapiens, UniProt Q2M2I8). How it is done: as §1, §2
Chain of AAK1 (Q2M2I8 whole entry): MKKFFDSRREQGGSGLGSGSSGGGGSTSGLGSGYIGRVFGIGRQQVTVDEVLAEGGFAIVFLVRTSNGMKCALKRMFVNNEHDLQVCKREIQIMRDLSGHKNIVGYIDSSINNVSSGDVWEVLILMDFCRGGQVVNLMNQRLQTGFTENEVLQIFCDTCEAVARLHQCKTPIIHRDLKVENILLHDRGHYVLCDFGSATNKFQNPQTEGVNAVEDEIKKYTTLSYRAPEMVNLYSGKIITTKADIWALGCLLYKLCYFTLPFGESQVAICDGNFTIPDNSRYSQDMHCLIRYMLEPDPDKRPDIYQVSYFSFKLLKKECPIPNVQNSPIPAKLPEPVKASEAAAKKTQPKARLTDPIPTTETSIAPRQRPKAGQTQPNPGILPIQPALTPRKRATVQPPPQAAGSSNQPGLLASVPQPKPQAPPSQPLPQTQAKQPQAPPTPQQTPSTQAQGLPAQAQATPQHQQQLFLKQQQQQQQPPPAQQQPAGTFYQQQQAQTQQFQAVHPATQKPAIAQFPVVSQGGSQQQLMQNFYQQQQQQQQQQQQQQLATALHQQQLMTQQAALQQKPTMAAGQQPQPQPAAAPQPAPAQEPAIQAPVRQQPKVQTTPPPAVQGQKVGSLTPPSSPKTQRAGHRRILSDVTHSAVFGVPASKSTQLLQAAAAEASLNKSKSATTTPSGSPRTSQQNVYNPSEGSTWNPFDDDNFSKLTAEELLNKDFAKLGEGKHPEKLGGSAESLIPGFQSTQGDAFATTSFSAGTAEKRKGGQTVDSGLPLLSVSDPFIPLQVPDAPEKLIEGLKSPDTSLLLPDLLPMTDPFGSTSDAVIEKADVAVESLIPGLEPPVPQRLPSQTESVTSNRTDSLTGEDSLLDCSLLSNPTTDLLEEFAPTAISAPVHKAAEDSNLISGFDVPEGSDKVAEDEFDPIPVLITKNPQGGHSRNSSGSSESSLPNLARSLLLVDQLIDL
Assay [4] deals with CDK7 (Homo sapiens, UniProt P50613). The procedure: as §1, §2
Chain of CDK7 (P50613 whole entry): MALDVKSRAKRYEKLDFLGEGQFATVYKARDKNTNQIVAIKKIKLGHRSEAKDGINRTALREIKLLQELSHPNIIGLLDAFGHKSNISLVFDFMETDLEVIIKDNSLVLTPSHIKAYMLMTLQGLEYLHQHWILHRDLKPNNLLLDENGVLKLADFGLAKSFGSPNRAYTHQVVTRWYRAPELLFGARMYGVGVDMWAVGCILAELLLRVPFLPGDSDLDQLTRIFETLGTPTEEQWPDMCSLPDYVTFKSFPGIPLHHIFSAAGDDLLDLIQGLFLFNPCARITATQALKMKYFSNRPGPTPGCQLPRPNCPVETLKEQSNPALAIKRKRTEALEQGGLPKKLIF
The target in assay [5] is T2, RSK1 (Homo sapiens, UniProt Q15418).
T2 construct: RPS6KA1(Kin.Dom.2-C-terminal)
T2 sequence (Q15418 whole entry): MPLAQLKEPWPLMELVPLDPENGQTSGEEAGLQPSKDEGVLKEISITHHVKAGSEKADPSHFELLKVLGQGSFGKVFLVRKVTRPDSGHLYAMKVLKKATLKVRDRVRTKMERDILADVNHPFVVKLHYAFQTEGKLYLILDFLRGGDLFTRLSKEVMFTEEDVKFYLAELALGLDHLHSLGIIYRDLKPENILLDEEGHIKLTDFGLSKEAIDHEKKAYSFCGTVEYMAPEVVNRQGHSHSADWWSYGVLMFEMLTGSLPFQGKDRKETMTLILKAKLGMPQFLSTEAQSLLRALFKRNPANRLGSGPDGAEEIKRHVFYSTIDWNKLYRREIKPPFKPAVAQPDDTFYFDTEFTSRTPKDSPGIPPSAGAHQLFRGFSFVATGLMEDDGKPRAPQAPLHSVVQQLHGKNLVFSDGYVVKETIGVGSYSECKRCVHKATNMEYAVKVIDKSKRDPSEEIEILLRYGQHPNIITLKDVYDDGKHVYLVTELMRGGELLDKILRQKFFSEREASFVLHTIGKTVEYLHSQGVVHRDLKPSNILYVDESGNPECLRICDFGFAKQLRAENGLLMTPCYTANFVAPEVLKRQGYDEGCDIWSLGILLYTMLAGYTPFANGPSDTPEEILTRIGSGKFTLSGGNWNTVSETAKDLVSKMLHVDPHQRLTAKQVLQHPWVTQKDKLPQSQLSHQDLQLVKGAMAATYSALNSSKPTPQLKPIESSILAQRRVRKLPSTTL
How it is done:
as §1, §2

Assay [6] concerns the target CAMKK1 (Homo sapiens, UniProt Q8N5S9). How it is done:
as §1, §2

The target of assay [7] is T3, DYRK2 (Homo sapiens, UniProt Q92630).
T3 sequence (Q92630 1-601): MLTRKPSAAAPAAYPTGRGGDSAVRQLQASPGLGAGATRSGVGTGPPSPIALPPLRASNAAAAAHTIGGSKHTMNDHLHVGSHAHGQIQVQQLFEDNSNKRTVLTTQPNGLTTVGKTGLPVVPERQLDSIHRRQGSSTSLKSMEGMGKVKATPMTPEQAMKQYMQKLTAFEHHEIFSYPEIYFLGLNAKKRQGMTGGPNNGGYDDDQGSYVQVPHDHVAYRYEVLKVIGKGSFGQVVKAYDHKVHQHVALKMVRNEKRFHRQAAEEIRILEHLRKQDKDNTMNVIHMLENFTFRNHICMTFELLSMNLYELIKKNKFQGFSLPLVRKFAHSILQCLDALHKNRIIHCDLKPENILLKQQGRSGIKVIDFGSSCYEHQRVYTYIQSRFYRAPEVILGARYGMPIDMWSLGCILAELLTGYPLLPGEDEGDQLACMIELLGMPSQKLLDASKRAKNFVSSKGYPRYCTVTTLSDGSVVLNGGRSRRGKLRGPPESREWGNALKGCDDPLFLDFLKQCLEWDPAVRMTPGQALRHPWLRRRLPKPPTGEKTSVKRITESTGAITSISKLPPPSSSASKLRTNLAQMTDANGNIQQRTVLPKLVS
How it is done:
as §1, §2

In assay [8] the target is BMPR1B (Homo sapiens, UniProt O00238). How it is done:
as §1, §2

Chain of CAMK2G (Q13555 whole entry): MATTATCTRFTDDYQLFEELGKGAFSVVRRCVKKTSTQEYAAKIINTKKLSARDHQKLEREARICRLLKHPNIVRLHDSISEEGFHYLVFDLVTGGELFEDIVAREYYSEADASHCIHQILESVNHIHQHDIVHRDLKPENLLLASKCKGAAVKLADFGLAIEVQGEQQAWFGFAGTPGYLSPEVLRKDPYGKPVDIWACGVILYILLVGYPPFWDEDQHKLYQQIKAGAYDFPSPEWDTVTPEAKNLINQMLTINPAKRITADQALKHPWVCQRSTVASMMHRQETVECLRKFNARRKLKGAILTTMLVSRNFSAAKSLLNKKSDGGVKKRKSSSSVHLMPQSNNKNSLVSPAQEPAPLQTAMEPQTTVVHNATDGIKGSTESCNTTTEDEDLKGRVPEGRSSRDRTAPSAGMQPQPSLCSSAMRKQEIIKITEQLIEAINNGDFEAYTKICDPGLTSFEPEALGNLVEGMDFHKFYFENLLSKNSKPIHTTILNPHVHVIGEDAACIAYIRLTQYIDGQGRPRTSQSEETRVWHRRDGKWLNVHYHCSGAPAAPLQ
Chain of BMPR1B (O00238 14-502): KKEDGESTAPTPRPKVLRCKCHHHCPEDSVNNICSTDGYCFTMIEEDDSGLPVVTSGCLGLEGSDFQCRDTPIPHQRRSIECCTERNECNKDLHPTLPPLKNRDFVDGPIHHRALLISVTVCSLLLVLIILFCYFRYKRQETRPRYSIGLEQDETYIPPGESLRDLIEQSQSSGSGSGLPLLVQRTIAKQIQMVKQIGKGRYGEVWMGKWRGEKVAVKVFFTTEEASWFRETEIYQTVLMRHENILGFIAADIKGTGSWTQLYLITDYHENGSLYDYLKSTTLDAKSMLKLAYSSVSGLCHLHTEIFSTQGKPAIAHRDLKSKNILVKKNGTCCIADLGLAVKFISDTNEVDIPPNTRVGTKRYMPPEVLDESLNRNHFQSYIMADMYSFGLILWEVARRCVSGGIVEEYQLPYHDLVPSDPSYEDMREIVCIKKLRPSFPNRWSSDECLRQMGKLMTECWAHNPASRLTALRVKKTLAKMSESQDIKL
Chain of CAMKK1 (Q8N5S9 whole entry): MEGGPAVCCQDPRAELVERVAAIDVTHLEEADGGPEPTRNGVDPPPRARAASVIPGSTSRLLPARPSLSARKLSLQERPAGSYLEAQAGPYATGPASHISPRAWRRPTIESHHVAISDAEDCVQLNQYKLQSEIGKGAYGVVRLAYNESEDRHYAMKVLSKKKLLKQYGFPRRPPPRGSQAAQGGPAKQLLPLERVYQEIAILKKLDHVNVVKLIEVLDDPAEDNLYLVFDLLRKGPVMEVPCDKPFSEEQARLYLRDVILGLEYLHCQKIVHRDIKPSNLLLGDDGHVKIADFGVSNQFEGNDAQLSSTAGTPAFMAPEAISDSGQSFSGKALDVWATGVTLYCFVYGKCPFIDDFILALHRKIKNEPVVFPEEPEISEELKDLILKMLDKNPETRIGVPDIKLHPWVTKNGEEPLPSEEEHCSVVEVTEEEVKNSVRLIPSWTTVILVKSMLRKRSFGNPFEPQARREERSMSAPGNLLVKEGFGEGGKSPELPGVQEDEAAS

With `Nc1nc2c(-c3ccccn3)nccc2[nH]1` [drawing 35, 4-(pyrid-2-yl)-1H-imidazo[4,5-c]pyridin-2-amine], the Kd in assay [1] was more than 30 µM; in assay [2] it was 24 µM; in assay [3] it was 1.5 µM; in assay [4] it was 7.5 µM; in assay [5], 0.53 µM; in assay [6], more than 30 µM.
With `Nc1nc2c(-c3cnc4ccccc4c3)nccc2[nH]1` [drawing 36, 4-(quinolin-3-yl)-1H-imidazo[4,5-c]pyridin-2-amine], the figures for the Kd in assay [7] and in assay [8] were 0.97 µM and 7.2 µM, respectively.
